According to patent US6821980B1, “Substituted 5-benzyl-2,4-diaminopyrimidines” (Basilea Pharmaceutica AG, priority 1999, dated 2004):
Values after ≈ are worked out from the molar mass of the structure shown.

Assays:
[1] = test system: Streptococcus pneumoniae 1/1; assay: MIC against Streptococcus pneumoniae 1/1; assay type: cell-based; conditions: Table 2; Streptococcus pneumoniae 1/1, trimethoprim- and penicillin-resistant, serotype 6; clinical isolate; read-out: MIC Sp1/1
[2] = test system: Staphylococcus aureus 101; assay: MIC against Staphylococcus aureus 101; assay type: cell-based; conditions: Table 2; Staphylococcus aureus 101, MRSA- and trimethoprim-resistant; clinical isolate; read-out: MIC Sa101
[3] = target: T1, purified DHFR of strain Sp1/1 of Streptococcus pneumoniae (Streptococcus pneumoniae serotype 4, UniProt Q54801); assay type: biochemical; conditions: Table 2; IC50 against purified DHFR of strain Sp1/1
T1 sequence (Q54801 1-168 I100L): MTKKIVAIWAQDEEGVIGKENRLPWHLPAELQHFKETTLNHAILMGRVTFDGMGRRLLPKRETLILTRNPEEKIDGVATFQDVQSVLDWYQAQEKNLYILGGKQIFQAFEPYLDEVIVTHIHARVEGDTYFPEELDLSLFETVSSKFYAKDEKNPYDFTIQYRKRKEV

[4] = target: purified DHFR of strain 157/4696 of Staphylococcus aureus (Staphylococcus aureus, UniProt P13955); assay: biochemical
Chain of purified DHFR of strain 157/4696 of Staphylococcus aureus (P13955 whole entry): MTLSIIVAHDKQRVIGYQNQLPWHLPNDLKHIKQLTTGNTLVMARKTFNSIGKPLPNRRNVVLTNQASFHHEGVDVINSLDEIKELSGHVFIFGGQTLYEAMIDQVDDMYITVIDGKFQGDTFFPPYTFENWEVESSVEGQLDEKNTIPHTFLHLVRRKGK

Compound	MIC [1] [µg/mL]	MIC [2] [µg/mL]	IC50 [3] [µM]	IC50 [4] [µM]
CCOc1cc(Cc2cnc(N)nc2N)cc(OCC2CC2)c1-c1ccc(O)cc1 [Example 08-h, 2′-Cyclopropylmethoxy-4′-(2,4-diamino-pyrimidin-5-ylmethyl)-6′-ethoxy-biphenyl-4-ol]	2 (≈ 4.92 µM)	4 (≈ 9.84 µM)	0.011	1.2
CCOc1cc(Cc2cnc(N)nc2N)cc(OCC2CCC2)c1-c1ccc(O)cc1 [Example 08-i, 2′-Cyclobutylmethoxy-4′-(2,4-diamino-pyrimidin-5-ylmethyl)-6′-ethoxy-biphenyl-4-ol]	4 (≈ 9.51 µM)	2 (≈ 4.76 µM)	0.04	1
CCOc1cc(Cc2cnc(N)nc2N)cc(OC2CCCC2)c1-c1ccc(O)cc1 [Example 08-j, 2′-Cyclopentylox-4′-(2,4-diamino-pyrimidin-5-ylmethyl)-6′-ethoxy-biphenyl-4-ol]	2 (≈ 4.76 µM)	2 (≈ 4.76 µM)	0.026	1.6
CCOc1cc(Cc2cnc(N)nc2N)cc(OC2CCC2)c1-c1ccc(O)cc1 [Example 08-k, 2′-Cyclobutoxy-4′-(2,4-diamino-pyrimidin-5-ylmethyl)-6′-ethoxy-biphenyl-4-ol]	2 (≈ 4.92 µM)	4 (≈ 9.84 µM)	0.043	2.1
CCOc1cc(Cc2cnc(N)nc2N)cc(OCCC2CC2)c1-c1ccc(O)cc1 [Example 08-l, 2′-(2-Cydopropyl-ethoxy)-4′-(2,4-diamino-pyrimidin-5-ylmethyl)-6′-ethoxy-biphenyl-4-ol]	8 (≈ 19 µM)	4 (≈ 9.51 µM)	0.058	2.2
CCOc1cc(Cc2cnc(N)nc2N)cc(OC(C)C)c1-c1ccc(O)cc1 [Example 08-m, 4′-(2,4-diamino-pyrimidin-5-ylmethyl)-6′-ethoxy-2′-isopropoxy-biphenyl-4-ol]	4 (≈ 10.1 µM)	8 (≈ 20.3 µM)	0.065	0.86
CCOc1cc(Cc2cnc(N)nc2N)cc(OCC(C)C)c1-c1ccc(O)cc1 [Example 08-n, 4′-(2,4-Diamino-pyrimidin-5-ylmethyl)-6′-ethoxy-2′-isobutoxy-biphenyl-4-ol]	2 (≈ 4.9 µM)	4 (≈ 9.79 µM)	0.015	1.2
CCOc1cc(Cc2cnc(N)nc2N)cc(OCC2(C)CC2)c1-c1ccc(O)cc1 [Example 08-o, 4′-(2,4-Diamino-pyrimidin-5-ylmethyl)-6′-ethoxy-2′-[(1-methyl-cyclopropyl)-methoxy]-biphenyl-4-ol]	2 (≈ 4.76 µM)	4 (≈ 9.51 µM)	0.051	1.4
CCOc1cc(Cc2cnc(N)nc2N)cc(OCC(C)(C)CO)c1-c1ccc(O)cc1 [Example 08-p]	4 (≈ 9.12 µM)	8 (≈ 18.2 µM)	0.02	0.8
CCOc1cc(Cc2cnc(N)nc2N)cc(OCCc2scnc2C)c1-c1ccc(O)cc1 [Example 08-q, 4′-(2,4-Diamino-pyrimidin-5-ylmethyl)-6′-ethoxy-2′-[2-(4-methyl-thiazol-5-yl)-ethoxy]-biphenyl-4-ol]	8 (≈ 16.8 µM)	8 (≈ 16.8 µM)	0.028	1.4
CCOc1cc(Cc2cnc(N)nc2N)cc(OC2CCC(OC)C2)c1-c1ccc(O)cc1 (stereo not drawn) [Example 08-r, 5-[6-Ethoxy-2-(3-methoxy-cyclopentyloxy)-4′-hydroxy-biphenyl-4-ylmethyl]-pyrimidine-2,4-diamine]	8 (≈ 17.8 µM)	8 (≈ 17.8 µM)	0.037	1.2
CCOc1cc(Cc2cnc(N)nc2N)cc(OCC(F)(F)F)c1-c1ccc(O)cc1 [Example 08-s]	2 (≈ 4.6 µM)	4 (≈ 9.21 µM)	0.031	3.7
CCOc1cc(Cc2cnc(N)nc2N)cc(OC2CCC(CC#N)C2)c1-c1ccc(O)cc1 (stereo not drawn) [Example 08-w, {3-[4-(2,4-Diamino-pyhmidin-5-ylmethyl)-6-ethoxy-4′-hydroxy-biphenyl-2-yloxy]-cyclopentyl}-acetonitrile]	4 (≈ 8.7 µM)	8 (≈ 17.4 µM)	0.021	0.92
CCOc1cc(Cc2cnc(N)nc2N)cc(OC2CCC(C#N)C2)c1-c1ccc(O)cc1 (stereo not drawn) [Example 08-x, 3-[4-(2,4-Diamino-pyximidin-5-ylmethyl)-6-ethoxy-4′-hydroxy-biphenyl-2-yloxy]-cyclopentanecarbonitrile]	4 (≈ 8.98 µM)	8 (≈ 18 µM)	0.025	1.4
CCOc1cc(Cc2cnc(N)nc2N)cc(OCC(C)(C)COC)c1-c1ccc(OC)cc1 [Example 09-a, 5-[6-Ethoxy-4′-methoxy-2-(3-methoxy-2,2-dimethyl-propoxy)-biphenyl-4-ylmethyl]-pyrimidine-2,4-diamine]	4 (≈ 8.57 µM)	8 (≈ 17.1 µM)	0.09	3.1
CCOc1cc(Cc2cnc(N)nc2N)cc(OCC2(CCC#N)CC2)c1-c1ccc(OC)cc1 [Example 09-c, 3-{1-[4-(2,4-Diamino-pyrimidin-5-ylmethyl)-6-ethoxy-4′-methoxy-biphenyl-2-yloxymethyl]-cyclopropyl}-propionitrile]	1 (≈ 2.11 µM)	4 (≈ 8.45 µM)	0.016	0.9
CCOc1cc(Cc2cnc(N)nc2N)cc(OCC2CC2)c1-c1ccc(OC)cc1 [Example 09-d, 5-(2-Cyclopropylmethoxy-6-ethoxy-4′-methoxy-biphenyl-4-ylmethyl)-pyrimidine-2.4-diamine]	2 (≈ 4.76 µM)	4 (≈ 9.51 µM)	0.03	1.5
CCCOc1cc(Cc2cnc(N)nc2N)cc(OCC)c1-c1ccc(OC)cc1 [Example 09-e, 5-(6-Ethoxy-4′-methoxy-2-propoxy-biphenyl-4-ylmethyl)-pyrimidine-2,4-diamine]	4 (≈ 9.79 µM)	4 (≈ 9.79 µM)	0.045	1
CCOc1cc(Cc2cnc(N)nc2N)cc(OC(C)C)c1-c1ccc(OC)cc1 [Example 09-f, 5-(2-Ethoxy-6-isopropopy-4′-methoxy-biphenyl-4-ylmethyl)-pyrimidine-2,4-diamine]	8 (≈ 19.6 µM)	8 (≈ 19.6 µM)	0.14	1.9
CCOc1cc(Cc2cnc(N)nc2N)cc(OCC(C)C)c1-c1ccc(OC)cc1 [Example 09-g, 5-(2-Ethoxy-6-isobutox-4′-methoxy-biphenyl-4-ylmethyl)-pyrimidine-2,4-diamine]	4 (≈ 9.47 µM)	4 (≈ 9.47 µM)	0.05	1.6
CCOc1cc(Cc2cnc(N)nc2N)cc(OCC2CCC2)c1-c1ccc2c(c1)OCO2 [Example 10-a, 5-(4-Benzof[1.3]dioxol-5-yl-3-cyclobutylmethoxy-5-ethoxy-benzyl)-pyrimidine-2,4-diamine]	8 (≈ 17.8 µM)	8 (≈ 17.8 µM)	0.034	1.4
CCOc1cc(Cc2cnc(N)nc2N)cc(OCC2CC2)c1-c1ccc2c(c1)OCO2 [Example 10-b, 5-(4-Benzo[1.3]dioxol-5-yl-3-cyclopropylmethoxy-5-ethoxy-benzyl)-pyrimidine-2,4-diamine]	2 (≈ 4.6 µM)	8 (≈ 18.4 µM)	0.04	2.4
CCOc1cc(Cc2cnc(N)nc2N)cc(OCC(C)C)c1-c1ccc2c(c1)OCO2 [Example 10-c, 5-(4-Benzo[1,3]dioxol-5-yl-3-ethoxy-5-isobutoxy-benzyl)-pyrimidine-2,4-diamine]	4 (≈ 9.16 µM)	8 (≈ 18.3 µM)	0.011	5
CCOc1cc(Cc2cnc(N)nc2N)cc(OC2CCCC2)c1-c1ccc2c(c1)OCO2 [Example 10-d, 5-(4-Benzo[1,3]dioxol-5-yl-3-cyclopentyloxy-5-ethoxy-benzyl)-pyrimidine-2,4-diamine]	8 (≈ 17.8 µM)	4 (≈ 8.92 µM)	0.042	1.7
CCOc1cc(Cc2cnc(N)nc2N)cc(OC2CCC2)c1-c1ccc2c(c1)OCO2 [Example 10-e, 5-(4-Benzo[1.31]dioxol-5-yl-3-cyclobutoxy-5-ethoxy-benzyl)-pyrmidine-2,4-diamine]	8 (≈ 18.4 µM)	8 (≈ 18.4 µM)	0.05	1.8
C=C(C)COc1cc(Cc2cnc(N)nc2N)cc(OCC)c1-c1ccc2c(c1)OCO2 [Example 10-f, 5-[4-Benzo[1.3]dioxol-5-yl-3-ethoxy-5-(2-methyl-allyloxy)-benzyl]-pyrimidine-2,4-diamine]	8 (≈ 18.4 µM)	8 (≈ 18.4 µM)	0.085	1.8
CCOc1cc(Cc2cnc(N)nc2N)cc(OCC2CC2)c1-c1ccc(N)c(C)c1 [Example 11-a]	1 (≈ 2.38 µM)	8 (≈ 19.1 µM)	0.018	1.8
CCOc1cc(Cc2cnc(N)nc2N)cc(OCC2CC2)c1-c1ccc(OC)c(N)c1 [Example 12-, 5-(3′-Amino-2-cyclopropylmethoxy-6-ethoxy-4′-methoxy-biphenyl-4-ylmethl)-pyrimidine-2,4-diamine]	2 (≈ 4.59 µM)	8 (≈ 18.4 µM)	0.014	1.8
CCOc1cc(Cc2cnc(N)nc2N)cc(OCC2CC2)c1-c1ccc(N)cc1 [Example 13-, 5-(4′-Amino-2-cyclopropylmethoxy-6-ethoxy-biphenyl-4-ylmethyl)-pyrimidine-2,4-diamine]	2 (≈ 4.93 µM)	8 (≈ 19.7 µM)	0.016	1.4
CCOc1cc(Cc2cnc(N)nc2N)cc(OS(C)(=O)=O)c1-c1cccc(N)c1 [Example 14-a, Methanesulphonic acid 3′-amino-4-(2,4-diamino-gyrimidin-5-ylmethyl)-6-ethoxy-biphenyl-2-yl ester]	4 (≈ 9.31 µM)	8 (≈ 18.6 µM)	0.023	0.35
